Results reported in patent publication US11667629B2, “Isoxazole derivative, preparation method therefor, and use thereof” (SICHUAN KELUN-BIOTECH BIOPHARMACEUTICAL CO., LTD., priority 2017, dated 2023).

What was measured:
[1] = Liver microsomal stability test, human; format: in vitro ADME
Description: (§1) The test compound (50 μL) was mixed with the liver microsome (100 μL) of each species, after pre-incubation at 37° C. for 5 minutes, NADPH (50 μL) was added, and the incubation was performed for 0, 30, and 60 minutes. The incubation concentrations of the test compound, NADPH, and liver microsomal enzyme were 1 μM, 1 mM, and 0.5 mg/mL, respectively. Ice-cold acetonitrile (200 μL) was added to stop the reaction, and an appropriate volume of the internal standard was then added. After the vortex and centrifugation process, the supernatant was obtained and detected.
(§2) LC-MS/MS, wherein the mass spectrometer was API 5500, and the liquid chromatograph was Shimadzu LC-30AD system. The chromatographic column was Hypersil GOLD C18, 1.9 μm particle size, 50×2.1 mm; mobile phase A was water+0.1% formic acid, phase B was acetonitrile; flow rate was 0.55 mL/min, and column temperature was 40° C. The ion source was an ESI source positive ion mode, and the scanning mode is multiple reaction monitoring (MRM).
(§3) By determining the concentrations of the samples at different incubation time, the rate constant was obtained by plotting “Ln (amount of the remained drug %)” versus “incubation time”. The half-life and liver clearance rate of the drug were then calculated, and were used to evaluate the metabolic stability of the drug in liver microsome.

[2] = Liver microsomal stability test, rat; format: in vitro ADME; settings: liver microsomes; rat liver microsome, 1 μM compound, 0.5 mg/mL, NADPH
Description: as §1, §2, §3

[3] = Liver microsomal stability test, mouse; format: in vitro ADME; settings: liver microsomes; mouse liver microsome, 1 μM compound, 0.5 mg/mL, NADPH
Description: as §1, §2, §3

FXR [4] = target: T1, FXR (Homo sapiens, UniProt Q96RI1); assay: Luciferase reporter gene assay (HEK293 cotransfected with FXR and human BSEP luciferase reporter); format: cell-based
T1 construct: expressed in transfected cells; host or cells: HEK293
T1 sequence (Q96RI1 1-486): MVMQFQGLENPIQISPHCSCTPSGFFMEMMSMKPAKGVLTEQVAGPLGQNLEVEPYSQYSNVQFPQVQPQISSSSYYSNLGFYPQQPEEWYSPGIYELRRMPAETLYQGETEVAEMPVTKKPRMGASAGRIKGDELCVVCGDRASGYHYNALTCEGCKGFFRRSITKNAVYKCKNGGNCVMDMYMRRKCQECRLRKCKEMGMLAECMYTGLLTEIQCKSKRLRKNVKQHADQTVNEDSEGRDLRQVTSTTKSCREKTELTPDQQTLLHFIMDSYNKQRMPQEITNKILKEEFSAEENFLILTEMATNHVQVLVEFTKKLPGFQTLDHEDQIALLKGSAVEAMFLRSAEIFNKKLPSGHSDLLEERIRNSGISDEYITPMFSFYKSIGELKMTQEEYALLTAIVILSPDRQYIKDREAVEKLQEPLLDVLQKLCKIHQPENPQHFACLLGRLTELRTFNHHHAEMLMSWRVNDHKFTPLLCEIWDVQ
Description: Human embryonic kidney cells HEK293 were cultured in a DMEM medium containing 10% FBS. Plasmids were cotransfected to allow the cells to have over expression of FXR and human BSEP luciferase reporter genes. The transfected cells were digested, resuspended, counted, and plated in a multi-well plate. 10 μL of the test compound at various concentrations was added to the multi-well plate to result in final concentrations of 64 μM, 16 μM, 4 μM, 1 μM, 0.25 μM, 0.0625 μM, 0.0156 μM, 0.0039 μM, 0.000975 μM, 0.000244 μM, 0 μM, and the final concentration of DMSO was 0.5%. After the test compound was incubated with the cells for 18 hours, the Brigh-Glo™ detection reagent was added, and the chemical light unit value (RLU) was detected by a multifunctional automatic microplate reader. Taking the signal value of the blank well (without the test compound) as 100%, the relative signal percentage (%) at each concentration of the test compound was calculated. The SigmaPlot 10 software was employed to fit the EC50 and the maximum activation effect Emax (relative signal percentage) of the test compounds using a four-parameter model.

FXR [5] = target: T2, FXR (Homo sapiens, UniProt Q96RI1); assay: Bile acid receptor FXR coactivator binding assay (LanthaScreen TR-FRET); format: biochemical
T2 construct: purchased Invitrogen
Description: The Invitrogen⋅LanthaScreen™ TR-FRET Farnesoid X Receptor Coactivator Assay kit was employed to determine the activation effect of the compounds on FXR.
After the receptor was incubated with the test compound at various concentrations at room temperature, the fluorescent-labeled coactivator short peptides and terbium-labeled antibody were added, and the FRET signal was detected after the reaction was complete at room temperature. The group without the receptor protein was employed as a blank, the activation effect (EC50) and maximum activation effect signal value (Emax) of the test compounds on FXR were calculated according to the four-parameter fitting equation: y=E min+(E max−E min)/(1+(x/EC50)^(−Hillslope))

[6] = Liver microsomal stability test, dog; format: in vitro ADME; settings: liver microsomes; dog liver microsome, 1 μM compound, 0.5 mg/mL, NADPH
Description: as §1, §2, §3

With O=C(O)c1ccc(-c2csc(N3[C@@H]4CC[C@H]3C[C@@H](OCc3c(-c5ccccc5OC(F)(F)F)noc3C3CC3)C4)n2)cc1C(F)(F)F [Compound C46, 4-(2-((1R,3r,5S)-3-((5-cyclopropyl-3-(2-(trifluoromethoxy)phenyl)isoxazol-4-yl)methoxy)-8-azabicyclo[3.2.1]octan-8-yl)thiazol-4-yl)-2-(trifluoromethyl)benzoic acid] the “clearance rate in human liver microsome” value [1] was 14.9 mL/min/kg, the CLint scaled at 1 μM [2] was 0.96 mL/min/kg and the half-life at 1 μM [2] was 16.1 h. For the same molecule, the CLint scaled at 1 μM [3] was 15.3 mL/min/kg, the half-life at 1 μM [3] was 2.5 h and the EC50 (FXR [4]; HEK293, 18 hours incubation) was 14 ± 5 nM. It also gave an Emax (FXR [4]; HEK293, maximum activation effect, relative signal percentage, blank well = 100%) of 301%, an EC50 (FXR [5]; TR-FRET coactivator assay, four-parameter fit, read-out: EC50 of the compounds on FXR) of 2 ± 1 nM and an Emax (FXR [5]; read-out: Relative activation effect) of 196%. For the same molecule, the CLint scaled at 1 μM [6] was 8.03 mL/min/kg and the half-life at 1 μM [6] was 4.32 h.
